Literature values, collected in patent US20080175905A1, “ESTROGEN/SERM AND ESTROGEN/PROGESTIN BI-LAYER TABLETS” (Wyeth, priority 2006, published 2008).

Tests used:
uterine response = settings: preclinical models of uterine stimulation
[1] = tested on: MCF-7 cell line (human breast cancer cell line); settings: MCF-7 human breast cancer cell line
[2] = tested on: ovariectomized rat model of osteopenia

Cc1c(-c2ccc(O)cc2)n(Cc2ccc(OCCN3CCCCCC3)cc2)c2ccc(O)cc12 [bazedoxifene acetate, 1-[4-(2-azepan-1-yl-ethoxy)-benzyl]-2-(4-hydroxy-phenyl)-3-methyl-1H-indol-5-ol acetic acid]
stimulation of uterine response (uterine response): little or no stimulation of uterine response | estrogen antagonist behaviour in MCF-7 cell line [1]: behaves as an estrogen antagonist | preventing bone loss [2]: estrogen agonist-like effect | reducing cholesterol [2]: estrogen agonist-like effect
